From ChEMBL document CHEMBL1201862, “PubChem BioAssay data set” (2004)
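Growth conditions: 96-well plates. Treatment: test compound, 48 hours, 5 concentrations. Analysis: linear interpolation between bracketing concentrations; unreached endpoints set to highest concentration. GI50 is the concentration that inhibits growth by half.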 Calls of active or inactive are those of the source. Cut-off read from the data, not from the text of the source: active = GI50 up to about 1.1 µM and inactive = higher.

What was measured:
Assay in all cases: inhibition of tumour cell growth, NCI panel, 48 h
[1] = test system: NCI-H522
[2] = test system: A549
[3] = test system: MCF7
[4] = test system: A498
[5] = test system: MDA-MB-231
[6] = test system: Hs-578T
[7] = test system: HOP-92
[8] = test system: T47D
[9] = test system: M14
[10] = test system: HCT-15
[11] = test system: BT-549
[12] = test system: OVCAR-8
[13] = test system: 786-0
[14] = test system: HCT-116
[15] = test system: ACHN
[16] = test system: CAKI-1
[17] = test system: SK-MEL-28
[18] = test system: HL-60
[19] = test system: HOP-62
[20] = test system: NCI-H226

NC1=Nc2cc(Cl)ccc2Sc2nc3ccccc3n21
GI50 [1]: 3.92 µM (inactive)
GI50 [2]: > 24.2 µM (inactive)
GI50 [3]: > 59.2 µM (inactive)
GI50 [4]: > 100 µM (inactive)
GI50 [5]: > 20.7 µM (inactive)
GI50 [6]: > 72.3 µM (inactive)
GI50 [7]: 16.1 µM (inactive)
GI50 [8]: > 33.8 µM (inactive)
GI50 [9]: 2.52 µM (inactive)
GI50 [10]: > 100 µM
GI50 [11]: > 100 µM (inactive)
GI50 [12]: 5.09 µM (inactive)
GI50 [13]: 14.2 µM (inactive)
GI50 [14]: 1.87 µM (inactive)
GI50 [15]: > 100 µM (inactive)
GI50 [16]: > 100 µM (inactive)
GI50 [17]: > 100 µM (inactive)
GI50 [18]: 2.39 µM (inactive)
GI50 [19]: > 86.3 µM (inactive)
GI50 [20]: 2.86 µM (inactive)

CC(C)OP(=O)(OC(C)C)C(C(C)C)N(C)/C(F)=N/C(F)(F)F (stereo not given)
GI50 [1]: > 100 µM (inactive)
GI50 [2]: > 100 µM (inactive)
GI50 [3]: > 100 µM (inactive)
GI50 [4]: > 100 µM (inactive)
GI50 [5]: > 100 µM (inactive)
GI50 [6]: > 100 µM (inactive)
GI50 [7]: > 100 µM (inactive)
GI50 [8]: > 100 µM (inactive)
GI50 [9]: > 100 µM (inactive)
GI50 [10]: > 100 µM
GI50 [11]: > 100 µM (inactive)
GI50 [12]: > 100 µM (inactive)
GI50 [13]: > 100 µM (inactive)
GI50 [14]: > 100 µM (inactive)
GI50 [15]: > 100 µM (inactive)
GI50 [16]: > 100 µM (inactive)
GI50 [17]: > 100 µM (inactive)
GI50 [18]: 31 µM (inactive)
GI50 [19]: > 100 µM (inactive)
GI50 [20]: > 100 µM (inactive)
